Laboratory results as given in patent publication US6914045B2, “Glycopeptide antibiotics” (Wyeth Holdings Corporation, priority 2001, dated 2005).
Converted amounts (≈) assume the structure as drawn. Numbered stars: 1 amine (or outer) side, 2 acyl side, 3 side chain; on linkers, the order of the positions; unused ones are H or OH. Square brackets hold non-standard residues; d marks the D form. Peptide text beside a SMILES is read from it. * marks the point of attachment. ξ: configuration not given here. X1 = N=C1NCC(C(O)C(N[*:1])C(=O)[*:2])N1C1OC(CO)C(O)C(O)C1O; ξEnduracididine(βξ-OH,4'ξ) = N=C1NCC(C(O)C(N)C(=O)O)N1; X2 = OCC1OC(OC2C(CO)OC(*)C(O)C2O)C(O)C(O)C1O

What was measured:
Test in all cases: in vitro antibacterial evaluation, MIC by broth dilution
Format in all cases: cell-based
Escherichia coli = details: 18 hours at 35° C.
How it was run: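 Read-out: the lowest concentration at which the test strain fails to grow. Serial dilutions (64-0.06 μg/mL) in Muller-Hinton II […], 5×10^5 CFU/mL inoculum, NCCLS M7-A2 procedure.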

Enterococcus sp. = details: broth dilution, 18 hours at 35° C.; for MIC Enterococcus faecalis (GC 2242): strain GC 2242; for MIC Enterococcus faecalis (GC 4552): strain GC 4552
How it was run: (§1)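 Broth dilution per NCCLS standard M7-A2 in Muller-Hinton II […], with an inoculum of 5×10^5 CFU/mL and antibiotic spanning 64-0.06 μg/mL. The MIC is the lowest concentration that inhibits growth of the organism.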

Streptococcus sp. = details: broth dilution, 18 hours at 35° C.; for MIC Streptococcus agalactiae (GC 4564): strain GC 4564
How it was run: as §1

Staphylococcus sp. = details: broth dilution, 18 hours at 35° C.
How it was run: as §1

[1] = Enterococcus faecalis (ATCC 29212)
[2] = Enterococcus faecalis (GC 4553)
[3] = Enterococcus faecalis (GC 4554)

N=C1NCC(C(O)C2NC(=O)C(Cc3ccc(OC4OC(CO)C(OC5OC(CO)C(O)C(O)C5O)C(O)C4O)cc3)NC(=O)C(Cc3ccccc3)NC(=O)CNC(=O)C(CO)NC(=O)C(C(O)C3CNC(=N)N3C3OC(CO)C(O)C(O)C3O)NC2=O)N1 (stereo not drawn) [Example 282, Cyclo[glycylphenylalanyl-O-(4-O-hexopyranosylhexopyranosyl)tyrosyl-3-(2-iminomidazolidin-4-yl)seryl-3-(3-hexopyranosyl-2-iminoimidazolidin-4-yl)serylseryl]] (cyclo(GFY(X2)[ξEnduracididine(βξ-OH,4'ξ)][X1]S); configuration not given here)
MIC Escherichia coli (ATCC 25922) (Escherichia coli): >128 µg/mL
MIC Escherichia coli (GC 4559) (Escherichia coli): >128 µg/mL
MIC Escherichia coli (GC 4560) (Escherichia coli): 128 µg/mL (≈ 99.9 µM)
MIC Enterococcus avium (GC 4558) (Enterococcus sp.; Enterococcus avium (GC 4558)): 128 µg/mL (≈ 99.9 µM)
MIC Enterococcus faecalis (ATCC 29212) (Enterococcus sp.; [1]): >128 µg/mL
MIC Enterococcus faecalis (GC 4553) (Enterococcus sp.; [2]): >128 µg/mL
MIC Enterococcus faecalis (GC 4554) (Enterococcus sp.; [3]): >128 µg/mL
MIC Enterococcus faecalis (GC 6189) (Enterococcus sp.; Enterococcus faecalis (GC 6189)): >128 µg/mL
MIC Enterococcus faecium (GC 2243) (Enterococcus sp.; Enterococcus faecium (GC 2243)): >128 µg/mL
MIC Enterococcus faecium (GC 4556) (Enterococcus sp.; Enterococcus faecium (GC 4556)): >128 µg/mL
MIC Enterococcus faecium (GC 4557) (Enterococcus sp.; Enterococcus faecium (GC 4557)): 128 µg/mL (≈ 99.9 µM)
MIC Enterococcus faecalis (ATCC 29212) (Enterococcus sp.; strain ATCC 29212): >128 µg/mL
MIC Enterococcus faecalis (GC 2242) (Enterococcus sp.): >128 µg/mL
MIC Enterococcus faecium (GC 2243) (Enterococcus sp.; strain GC 2243): >128 µg/mL
MIC Enterococcus faecalis (GC 2691) (Enterococcus sp.; strain GC 2691): >128 µg/mL
MIC Enterococcus faecalis (GC 3059) (Enterococcus sp.; strain GC 3059): >128 µg/mL
MIC Enterococcus faecalis (GC 4552) (Enterococcus sp.): >128 µg/mL
MIC Enterococcus faecalis (GC 4553) (Enterococcus sp.; strain GC 4553): >128 µg/mL
MIC Enterococcus faecalis (GC 4554) (Enterococcus sp.; strain GC 4554): >128 µg/mL
MIC Enterococcus faecium (GC 4556) (Enterococcus sp.; strain GC 4556): >128 µg/mL
MIC Enterococcus faecium (GC 4557) (Enterococcus sp.; strain GC 4557): 128 µg/mL (≈ 99.9 µM)
MIC Enterococcus avium (GC 4558) (Enterococcus sp.; strain GC 4558): 128 µg/mL (≈ 99.9 µM)
MIC Enterococcus faecalis (GC 6189) (Enterococcus sp.; strain GC 6189): >128 µg/mL
MIC Streptococcus pneumoniae (ATCC 6301) (Streptococcus sp.; strain ATCC 6301): 128 µg/mL (≈ 99.9 µM)
MIC Streptococcus pneumoniae (GC 1894) (Streptococcus sp.; strain GC 1894): 128 µg/mL (≈ 99.9 µM)
MIC Streptococcus pyogenes (GC 4563) (Streptococcus sp.; strain GC 4563): >128 µg/mL
MIC Streptococcus agalactiae (GC 4564) (Streptococcus sp.): >128 µg/mL
MIC Streptococcus pneumoniae (GC 4565) (Streptococcus sp.; strain GC 4565): >128 µg/mL
MIC Coagulase Negative Staphylococcus (GC 4547) (Staphylococcus sp.): >128 µg/mL
MIC Coagulase Negative Staphylococcus (GC 4548) (Staphylococcus sp.): >128 µg/mL
MIC Coagulase Negative Staphylococcus (GC 4549) (Staphylococcus sp.): >128 µg/mL
MIC Coagulase Negative Staphylococcus (GC 4551) (Staphylococcus sp.): >128 µg/mL
MIC Staphylococcus aureus (ATCC 29213) (Staphylococcus sp.): >128 µg/mL
MIC Staphylococcus aureus (GC 1131) (Staphylococcus sp.): >128 µg/mL
MIC Staphylococcus aureus (GC 3051) (Staphylococcus sp.): >128 µg/mL
MIC Staphylococcus aureus (GC 3053) (Staphylococcus sp.): >128 µg/mL
MIC Staphylococcus aureus (GC 4541) (Staphylococcus sp.): >128 µg/mL
MIC Staphylococcus aureus (GC 4542) (Staphylococcus sp.): >128 µg/mL
MIC Staphylococcus aureus (GC 4544) (Staphylococcus sp.): >128 µg/mL
MIC Staphylococcus aureus (GC 4545) (Staphylococcus sp.): >128 µg/mL
MIC Staphylococcus aureus-SMITH (GC 4543) (Staphylococcus sp.): >128 µg/mL
MIC Staphylococcus haemolyticus (GC 4546) (Staphylococcus sp.): >128 µg/mL
MIC Staphylococcus aureus (ATCC 29213) (Staphylococcus sp.; strain ATCC 29213): >128 µg/mL
MIC Staphylococcus aureus (GC 1131) (Staphylococcus sp.; strain GC 1131): >128 µg/mL
MIC Staphylococcus aureus (GC 3051) (Staphylococcus sp.; strain GC 3051): >128 µg/mL
MIC Staphylococcus aureus (GC 3053) (Staphylococcus sp.; strain GC 3053): >128 µg/mL
MIC Staphylococcus aureus (GC 4541) (Staphylococcus sp.; strain GC 4541): >128 µg/mL
MIC Staphylococcus aureus (GC 4542) (Staphylococcus sp.; strain GC 4542): >128 µg/mL
MIC Staphylococcus aureus (GC 4544) (Staphylococcus sp.; strain GC 4544): >128 µg/mL
MIC Staphylococcus aureus (GC 4545) (Staphylococcus sp.; strain GC 4545): >128 µg/mL
MIC Staphylococcus haemolyticus (GC 4546) (Staphylococcus sp.; strain GC 4546): >128 µg/mL
MIC Coagulase Negative Staphylococcus (GC 4547) (Staphylococcus sp.; strain GC 4547): >128 µg/mL
MIC Coagulase Negative Staphylococcus (GC 4548) (Staphylococcus sp.; strain GC 4548): >128 µg/mL
MIC Coagulase Negative Staphylococcus (GC 4549) (Staphylococcus sp.; strain GC 4549): >128 µg/mL
MIC Coagulase Negative Staphylococcus (GC 4551) (Staphylococcus sp.; strain GC 4551): >128 µg/mL
MIC Staphylococcus aureus-SMITH (GC 4543) (Staphylococcus sp.; strain SMITH GC 4543): >128 µg/mL

CC(C)CCC(=O)OC1C(OC2C(CO)OC(Oc3ccc(CC4NC(=O)C(C(C)c5ccccc5)NC(=O)CNC(=O)C(CO)NC(=O)C(C(O)C5CNC(=N)N5C5OC(CO)C(O)C(O)C5O)NC(=O)C(C(O)C5CNC(=N)N5)NC4=O)cc3)C(O)C2O)OC(CO)C(O)C1O (stereo not drawn) [Example 270a, Cyclo[glycyl-β-methylphenylalanyl-O-[4-O-[2-O-(4-methylventanovl)hexopyranosyl]-hexopyranosyl]tyrosyl-3-(2-iminoimidazolidin-4-yl)seryl-3-(3-hexopyranosyl-2-iminoimidazolidin-4-yl)serylseryl]]
MIC Escherichia coli (ATCC 25922) (Escherichia coli): >64 µg/mL
MIC Escherichia coli (GC 4559) (Escherichia coli): >64 µg/mL
MIC Escherichia coli (GC 4560) (Escherichia coli): 2 µg/mL (≈ 1.44 µM)
MIC Enterococcus avium (GC 4558) (Enterococcus sp.; Enterococcus avium (GC 4558)): 16 µg/mL (≈ 11.5 µM)
MIC Enterococcus faecalis (ATCC 29212) (Enterococcus sp.; [1]): 16 µg/mL (≈ 11.5 µM)
MIC Enterococcus faecalis (GC 4553) (Enterococcus sp.; [2]): 16 µg/mL (≈ 11.5 µM)
MIC Enterococcus faecalis (GC 4554) (Enterococcus sp.; [3]): 32 µg/mL (≈ 23 µM)
MIC Enterococcus faecium (GC 2243) (Enterococcus sp.; Enterococcus faecium (GC 2243)): 16 µg/mL (≈ 11.5 µM)
MIC Enterococcus faecium (GC 4556) (Enterococcus sp.; Enterococcus faecium (GC 4556)): 16 µg/mL (≈ 11.5 µM)
MIC Enterococcus faecium (GC 4557) (Enterococcus sp.; Enterococcus faecium (GC 4557)): 4 µg/mL (≈ 2.87 µM)
MIC Enterococcus faecalis (ATCC 29212) (Enterococcus sp.; strain ATCC 29212): 16 µg/mL (≈ 11.5 µM)
MIC Enterococcus faecalis (GC 2242) (Enterococcus sp.): 16 µg/mL (≈ 11.5 µM)
MIC Enterococcus faecium (GC 2243) (Enterococcus sp.; strain GC 2243): 16 µg/mL (≈ 11.5 µM)
MIC Enterococcus faecalis (GC 4552) (Enterococcus sp.): 16 µg/mL (≈ 11.5 µM)
MIC Enterococcus faecalis (GC 4553) (Enterococcus sp.; strain GC 4553): 16 µg/mL (≈ 11.5 µM)
MIC Enterococcus faecalis (GC 4554) (Enterococcus sp.; strain GC 4554): 32 µg/mL (≈ 23 µM)
MIC Enterococcus faecium (GC 4556) (Enterococcus sp.; strain GC 4556): 16 µg/mL (≈ 11.5 µM)
MIC Enterococcus faecium (GC 4557) (Enterococcus sp.; strain GC 4557): 4 µg/mL (≈ 2.87 µM)
MIC Enterococcus avium (GC 4558) (Enterococcus sp.; strain GC 4558): 16 µg/mL (≈ 11.5 µM)
MIC Streptococcus agalactiae (GC 4564) (Streptococcus sp.): 1 µg/mL (≈ 0.718 µM)
MIC Streptococcus pyogenes (ID-3187) (Streptococcus sp.; strain ID-3187): 1 µg/mL (≈ 0.718 µM)
MIC Coagulase Negative Staphylococcus (GC 4547) (Staphylococcus sp.): 2 µg/mL (≈ 1.44 µM)
MIC Coagulase Negative Staphylococcus (GC 4548) (Staphylococcus sp.): 2 µg/mL (≈ 1.44 µM)
MIC Coagulase Negative Staphylococcus (GC 4549) (Staphylococcus sp.): 2 µg/mL (≈ 1.44 µM)
MIC Coagulase Negative Staphylococcus (GC 4551) (Staphylococcus sp.): 4 µg/mL (≈ 2.87 µM)
MIC Staphylococcus aureus (ATCC 29213) (Staphylococcus sp.): 4 µg/mL (≈ 2.87 µM)
MIC Staphylococcus aureus (GC 1131) (Staphylococcus sp.): 4 µg/mL (≈ 2.87 µM)
MIC Staphylococcus aureus (GC 4541) (Staphylococcus sp.): 4 µg/mL (≈ 2.87 µM)
MIC Staphylococcus aureus (GC 4542) (Staphylococcus sp.): 4 µg/mL (≈ 2.87 µM)
MIC Staphylococcus aureus (GC 4544) (Staphylococcus sp.): 4 µg/mL (≈ 2.87 µM)
MIC Staphylococcus aureus (GC 4545) (Staphylococcus sp.): 4 µg/mL (≈ 2.87 µM)
MIC Staphylococcus aureus-SMITH (GC 4543) (Staphylococcus sp.): 4 µg/mL (≈ 2.87 µM)
MIC Staphylococcus haemolyticus (GC 4546) (Staphylococcus sp.): 2 µg/mL (≈ 1.44 µM)
MIC Staphylococcus aureus (ATCC 29213) (Staphylococcus sp.; strain ATCC 29213): 4 µg/mL (≈ 2.87 µM)
MIC Staphylococcus aureus (GC 1131) (Staphylococcus sp.; strain GC 1131): 4 µg/mL (≈ 2.87 µM)
MIC Staphylococcus aureus (GC 4541) (Staphylococcus sp.; strain GC 4541): 4 µg/mL (≈ 2.87 µM)
MIC Staphylococcus aureus (GC 4542) (Staphylococcus sp.; strain GC 4542): 4 µg/mL (≈ 2.87 µM)
MIC Staphylococcus aureus (GC 4544) (Staphylococcus sp.; strain GC 4544): 4 µg/mL (≈ 2.87 µM)
MIC Staphylococcus aureus (GC 4545) (Staphylococcus sp.; strain GC 4545): 4 µg/mL (≈ 2.87 µM)
MIC Staphylococcus haemolyticus (GC 4546) (Staphylococcus sp.; strain GC 4546): 2 µg/mL (≈ 1.44 µM)
MIC Coagulase Negative Staphylococcus (GC 4547) (Staphylococcus sp.; strain GC 4547): 2 µg/mL (≈ 1.44 µM)
MIC Coagulase Negative Staphylococcus (GC 4548) (Staphylococcus sp.; strain GC 4548): 2 µg/mL (≈ 1.44 µM)
MIC Coagulase Negative Staphylococcus (GC 4549) (Staphylococcus sp.; strain GC 4549): 2 µg/mL (≈ 1.44 µM)
MIC Coagulase Negative Staphylococcus (GC 4551) (Staphylococcus sp.; strain GC 4551): 4 µg/mL (≈ 2.87 µM)
MIC Staphylococcus aureus-SMITH (GC 4543) (Staphylococcus sp.; strain SMITH GC 4543): 4 µg/mL (≈ 2.87 µM)
